This assay addresses T1, AR-VP16 (Homo sapiens, UniProt P10275).
T1 sequence (P10275 560-920 limits assumed): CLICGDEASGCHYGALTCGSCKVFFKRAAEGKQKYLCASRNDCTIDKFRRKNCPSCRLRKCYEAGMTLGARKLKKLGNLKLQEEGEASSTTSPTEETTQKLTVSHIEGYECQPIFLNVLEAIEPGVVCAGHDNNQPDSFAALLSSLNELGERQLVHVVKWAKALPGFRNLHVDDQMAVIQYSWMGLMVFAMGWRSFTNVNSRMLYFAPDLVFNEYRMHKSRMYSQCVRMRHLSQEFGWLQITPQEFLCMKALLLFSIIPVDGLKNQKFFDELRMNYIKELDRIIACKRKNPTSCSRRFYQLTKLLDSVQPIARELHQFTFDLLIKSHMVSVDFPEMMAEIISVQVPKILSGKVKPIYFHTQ
As to the kind of experiment: AR-VP16 DNA Binding Assay, antagonist mode (HepG2 cells, 0.1 nM R1881). The class given is cell-based. As to the method:
Cells were transiently transfected using Lipofectin (Life Technologies) according to the manufacturer's protocol. […] Transfected cells were incubated overnight then treated with ligand. […] For antagonist assays, the compounds were serially diluted and 50 μL of compound with RPMI supplemented with charcoal stripped serum plus methyltrienolone (R1881) were added to the cells. The final R1881 concentration used in the antagonist assays was 0.1 nM. Following 48 hour incubation the medium was removed and the cells were lysed in 40 μL of lysis buffer (25 mM Tris Phosphate, 2 mM CDTA, 10% Glycerol, 0.5% Triton X-100, 2 mM DTT).

A word on the IC50: it is the concentration at which inhibition is half-maximal. Higher therefore signals weaker potency. On to `N#Cc1ncc(N2C(=O)C3(CCC3)N(c3ccc(Br)c(F)c3)C2=S)cc1C(F)(F)F` [Compound 4, 5-(5-(4-Bromo-3-fluorophenyl)-8-oxo-6-thioxo-5,7-diazaspiro[3.4]octan-7-yl)-3-(trifluoromethyl)picolinonitrile], for which the IC50 is under 1 µM.

Consider `N#Cc1ncc(N2C(=O)C3(CCC3)N(c3ccc4ccccc4c3)C2=S)cc1C(F)(F)F` [Compound 9, 5-(5-(Naphthalen-2-yl)-8-oxo-6-thioxo-5,7-diazaspiro[3.4]octan-7-yl)-3-(trifluoromethyl)picolinonitrile], for which the IC50 is under 1 µM.

In turn, `N#Cc1ncc(N2C(=O)C3(CCC3)N(c3ccc(-c4ccccc4)cc3)C2=S)cc1C(F)(F)F` [Compound 13, 5-(5-([1,1′-Biphenyl]-4-yl)-8-oxo-6-thioxo-5,7-diazaspiro[3.4]octan-7-yl)-3-(trifluoromethyl)picolinonitrile] came in with an IC50 of under 1 µM.

Take `N#Cc1ncc(N2C(=O)C3(CCC3)N(c3ccc(-c4cccnc4)cc3)C2=S)cc1C(F)(F)F` [Compound 17, 5-(8-Oxo-5-(4-(pyridin-3-yl)phenyl)-6-thioxo-5,7-diazaspiro[3.4]octan-7-yl)-3-(trifluoromethyl)picolinonitrile]: the IC50 is under 1 µM.

Turning to `N#Cc1ncc(N2C(=O)C3(CCC3)N(c3cccnc3)C2=S)cc1C(F)(F)F` [Compound 19, 5-(8-Oxo-5-(pyridin-3-yl)-6-thioxo-5,7-diazaspiro[3.4]octan-7-yl)-3-(trifluoromethyl)picolinonitrile], the IC50 is over 1 µM.

Consider `Cc1cccc(N2C(=S)N(c3cnc(C#N)c(C(F)(F)F)c3)C(=O)C23CCC3)c1` [Compound 21, 5-(8-Oxo-6-thioxo-5-(m-tolyl)-5,7-diazaspiro[3.4]octan-7-yl)-3-(trifluoromethyl)picolinonitrile], for which the 50% inhibitory concentration (IC50) was under 1 µM.

`Cc1ccc(N2C(=S)N(c3ccc4nnc(C(F)(F)F)n4n3)C(=O)C23CCC3)cc1` [Compound 30, 6-Thioxo-5-(p-tolyl)-7-(3-(trifluoromethyl)-[1,2,4]triazolo[4,3-b]pyridazin-6-yl)-5,7-diazaspiro[3.4]octan-8-one]: the IC50 was under 1 µM.

`Cc1ccc(N2C(=S)N(c3ccc(C#N)c4ncccc34)C(=O)C23CCC3)cc1` [Compound 36, 5-(8-Oxo-6-thioxo-5-(p-tolyl)-5,7-diazaspiro[3.4]octan-7-yl)quinoline-8-carbonitrile] gave an IC50 of under 1 µM.

Take `CNC(=O)c1ccc(N2C(=S)N(c3ccc(C#N)c4ncccc34)C(=O)C23CCC3)cc1F` [Compound 37, 4-(7-(8-Cyanoquinolin-5-yl)-8-oxo-6-thioxo-5,7-diazaspiro[3.4]octan-5-yl)-2-fluoro-N-methylbenzamide]: the IC50 was under 1 µM.

Regarding `N#Cc1ncc(N2C(=O)C3(CCC3)N(c3ccc(Oc4ccccn4)cc3)C2=S)cc1C(F)(F)F` [Compound 41, 5-(8-Oxo-5-(4-(pyridin-2-yloxy)phenyl)-6-thioxo-5,7-diazaspiro[3.4]octan-7-yl)-3-(trifluoromethyl)picolinonitrile], the IC50 is under 1 µM.

The compound `N#Cc1ncc(N2C(=O)C3(CCC3)N(c3ccc(Oc4cncnc4)cc3)C2=S)cc1C(F)(F)F` [Compound 42, 5-(8-Oxo-5-(4-(pyrimidin-5-yloxy)phenyl)-6-thioxo-5,7-diazaspiro[3.4]octan-7-yl)-3-(trifluoromethyl)picolinonitrile] showed an IC50 of under 1 µM.

For `CNC(=O)c1ccc(N2C(=S)N(c3cnc(C#N)c(C(F)(F)F)c3)C(=O)C2(C)C)cc1F` [Compound 43, 4-(3-(6-Cyano-5-(trifluoromethyl)pyridin-3-yl)-5,5-dimethyl-4-oxo-2-thioxoimidazolidin-1-yl)-2-fluoro-N-methylbenzamide], the IC50 was under 1 µM.

The compound `CNC(=O)c1ccc(N2C(=S)N(c3cnc(C#N)c(C)c3)C(=O)C2(C)C)cc1F` [Compound 47, 4-(3-(6-Cyano-5-methylpyridin-3-yl)-5,5-dimethyl-4-oxo-2-thioxoimidazolidin-1-yl)-2-fluoro-N-methylbenzamide] gave an IC50 of under 1 µM.

The values are drawn from patent US9108944B2, “Androgen receptor modulators and uses thereof” (ARAGON PHARMACEUTICALS, INC., priority 2010, dated 2015).
